{"source": "patent US7056538B2", "about": "“Disinfectant solution based on sodium hypochlorite, and process for preparing it” (Aziende Chimiche Riunite Angelini Francesco A.C.R.A.F. …, priority 2001, dated 2006)", "origin": "cited, not measured here", "conditions": "25° C."}
{"smiles": "OCl", "note": "[hypochlorous acid]", "values": [{"measurement": "dissociation constant pKa", "value": 7.49}]}
